Data on three compounds can be found in patent US20250326988A1, “SELF-PRESERVED, MILD LIQUID LAUNDRY DETERGENT FORMULAS” (Henkel AG & Co. KGaA, priority 2024, published 2025).

This assay deals with Fungi. In words: Micro challenge, fungi reduction. Format: cell-based. The settings on record: for Estimated Regression Coefficients for 7 Day: Coefficient / Estimated Regression Coefficients for 14 Day: Coefficient / Estimated Regression Coefficients for 21 Day: Coefficient / Estimated Regression Coefficients for 28 Day: Coefficient: Minitab regression of fungi log reductions; for efficacy of ingredient for log reduction as indicated by estimated regression coefficients: ethanol at day 7, sodium chloride afterwards. On the procedure: Micro challenges were performed on Formulations 61J-L, 62A-M, […] and […] prepared in Example 1 for log reduction rates of bacteria and fungi. Bacteria were double challenged (inoculated about 1E08 to 1E09 CFU/g) and Fungi was single challenged (inoculated about 1E8 to 5E8). A. brasillienis (mold), S. aureus, E. coli, P. gergoviae/[…] mixture, P. aeruginosa, C. albicans (yeast), H. venusta were tested. Pass criteria for bacterium was greater than 3 log reduction on day 7 and 4 logs on day 28. Pass criteria for fungi was greater than 1 log reduction at 14 days with no growth observed afterwards.

Take `CCO` [Ethanol]: the “Estimated Regression Coefficients for 7 Day: Coefficient” value was 2.24, the “Estimated Regression Coefficients for 14 Day: Coefficient” value is reported as 3.08, the “Estimated Regression Coefficients for 21 Day: Coefficient” value is 3.22 and the “Estimated Regression Coefficients for 28 Day: Coefficient” value was 3.09. Besides, the “efficacy of ingredient for log reduction as indicated by estimated regression coefficients” value was “most effective log reduction”.

On to `CC(C(=O)O)N(CC(=O)O)CC(=O)O` (centres unmarked) [MGDA, methylglycinediacetic acid], for which the “Estimated Regression Coefficients for 7 Day: Coefficient” value was 1.16, the “Estimated Regression Coefficients for 14 Day: Coefficient” value is recorded as 1.42, the “Estimated Regression Coefficients for 21 Day: Coefficient” value is given as 1.43 and the “Estimated Regression Coefficients for 28 Day: Coefficient” value was 1.42.

On to `[Cl-].[Na+]` [NaCl, sodium chloride], for which the “Estimated Regression Coefficients for 7 Day: Coefficient” value is recorded as 1.36, the “Estimated Regression Coefficients for 14 Day: Coefficient” value is on record as 2.14, the “Estimated Regression Coefficients for 21 Day: Coefficient” value is listed as 3.13 and the “Estimated Regression Coefficients for 28 Day: Coefficient” value is 3.42. Moreover, the “efficacy of ingredient for log reduction as indicated by estimated regression coefficients” value is “comparable to ethanol's efficacy”.
